The values below come from PubChem BioAssay AID1259407 (Chemical Carcinogenesis Research Information System (CCRIS), 2018).

The source made the active and inactive calls. The rule behind the calls is not given here.

For the data set, the system named is CCRIS mutagenicity, Ames/micronucleus/aberration tests. Put plainly: CCRIS mutagenicity studies.

As for `CNc1nncc2ccccc12`, the mutagenic call is “active; positive” (Test System: AMES SALMONELLA TYPHIMURIUM, Strain/Indicator: TA100, Metabolic Activation: NONE, Method: STANDARD PLATE); “active; positive” (Test System: AMES SALMONELLA TYPHIMURIUM, Strain/Indicator: TA100, Metabolic Activation: RAT, LIVER, S-9, PHENOBARBITAL, Method: STANDARD PLATE); “active; positive” (Test System: UDS RAT HEPATOCYTES, Strain/Indicator: THY INCORP, Metabolic Activation: NONE, Method: AUTORADIOGRAPHY); “inactive; negative” (Test System: UDS RODENT HEPATOCYTES, Strain/Indicator: THY INCORP (NON-S-PHASE), Metabolic Activation: HOST-MEDIATED, Method: IN VIVO-IN VITRO).
